Test results from US20250268840A1, “USE OF NANO-CARRIERS FOR DELIVERY OF ACTIVE AGENTS” (LANDA LABS (2012) LTD., priority 2022, published 2025).

Legend:
[1] = Thermo-rheometer viscosity of WITC (PCL), unplasticized or blended with plasticizing agents / premixes; type: physicochemical
Description: Thermo-rheometer: Thermo Scientific (Germany) Haake Mars III, with a C20/1° spindle, a gap of 0.052 mm, and a shear rate of 10 sec^−1. […]
Samples corresponding to the above-described premixes were additionally tested for their viscosity at the end of the mixing step, when the WITCs were at least homogeneously blended with the polar-carrier-insoluble materials, and in most case plasticized by the non-volatile liquids if present. Viscosity was determined as previously described at a shear rate of 10 sec^−1 over a range of temperatures between 20° C. and 80° C., and for all samples so tested the viscosity as measured at 50° C. was typically found to be of less than 10^6 mPa·s, being generally between 10^3 mPa·s and 10^5 mPa·s, often not exceeding 5×10^4 mPa·s, and many samples even having a viscosity of less 10^4 mPa·s.
In a first series of experiments, the viscosity was measured on blends of materials forming a homogeneous mass adapted for nano-sizing by the present methods. PCL and a non-volatile liquid or a fatty amine serving as SFA at various weight per weight ratios were combined in a glass vial and the sealed vials were placed in an oven pre-heated to 80° C. The PCL: non-volatile liquid ratios tested were 1:1 and 1:2.33 and the PCL: fatty amine ratios tested were 1:0.1, 1:0.33, 1:0.5 and 1:1. Following 1 hour of incubation under heat, the contents of the vials were mixed by hand for about 30 seconds, until clear solutions were obtained. The samples were allowed to cool down overnight (i.e., at least 12 hours) at room temperature so as to solidify.
Solid samples were then transferred to a rheometer where their respective viscosity was measured as a function of temperature between room temperature and 70° C. at a ramping up temperature of 10° C./min. The viscosities (or 2nd viscosities) of the samples as measured at 50° C. and 70° C. are summarized in Table 2-II(A), including in the first row the first viscosities of a reference sample made of PCL alone, unplasticized, under same conditions.

[2] = Pharmacokinetic study of tadalafil in plasma after oral administration; type: in vivo, rats (Sprague Dawley); settings: rats
Description: The following pharmacokinetic (PK) study was conducted to determine the efficacy of a composition according to the present teachings, following its oral administration to rats.
Nine young adult healthy rats (Sprague Dawley), having an initial mean body weight of about 243.1 +1.8 g, were used in this study. They were individually tail marked and housed within a limited access caged rodent facility. The rats were randomly divided into groups of 3, and were kept with their groups in cages, in a controlled environment at a temperature of 17-23° C., with a relative humidity (RH) of 30-70%, a 12:12 hour light:dark cycle and 15 air changes/h in the study room. […]
Nano-dispersion ND39, as listed in Table 5-II, was used as the tested composition. ND39 contains tadalafil as the polar-carrier insoluble active agent present in the core of the nano-elements, and its concentration in the rats' blood was monitored. […]
The plasma samples were combined with acetone, allowing the dissolution of the nano-elements and making the tadalafil available for measuring, followed by centrifugation whereby plasma proteins were precipitated. The obtained supernatant was removed and analyzed by LC-MS/MS vs. a tadalafil calibration curve prepared in advance, in the range of 1 ng/ml to 10 ug/ml. […]

[3] = PCL:plasticizing agent w/w ratio 1:0.33
[4] = PCL:plasticizing agent w/w ratio 1:0.5
[5] = PCL:plasticizing agent w/w ratio 1:1
[6] = PCL:plasticizing agent w/w ratio 1:2.33

SMILES: CCCCCCCC/C=C\CCCCCCCCN [Oleyl amine]
- PCL 2nd viscosity at 50° C. [mPa · s] [1, 3]: 1.9 × 10^3 mPa · s
- PCL 2nd viscosity at 70° C. [mPa · s] [1, 3]: 1.7 × 10^3 mPa · s
- PCL 2nd viscosity at 50° C. [mPa · s] [1, 4]: 6.7 × 10^3 mPa · s
- PCL 2nd viscosity at 70° C. [mPa · s] [1, 4]: 4.4 × 10^3 mPa · s

SMILES: CCCCCCCCN(CCCCCCCC)CCCCCCCC [Trioctyl amine]
- PCL 2nd viscosity at 50° C. [mPa · s] [1, 5]: 544 mPa · s
- PCL 2nd viscosity at 70° C. [mPa · s] [1, 5]: 279 mPa · s

SMILES: CN1CC(=O)N2[C@H](c3ccc4c(c3)OCO4)c3[nH]c4ccccc4c3C[C@@H]2C1=O [Ref. T, Tadalafil]
- % CV of plasma tadalafil concentration, average for all time points ([2]; 3 animals per time point): 31.1%
- AUC0-∞/D (area under curve zero to infinity normalized to dose of tadalafil) ([2]; ND39 about 16 mg/kg, Ref. C about 18.7 mg/kg, Ref. T about 18.1 mg/kg): about 1,249 h.mg/ml

SMILES: CCCCOC(=O)CCCCC(=O)OCCCC [Cetiol ® B, Dibutyl adipate]
- PCL 2nd viscosity at 50° C. [mPa · s] [1, 5]: 5.0 × 10^3 mPa · s
- PCL 2nd viscosity at 70° C. [mPa · s] [1, 5]: 2.2 × 10^3 mPa · s
- PCL 2nd viscosity at 50° C. [mPa · s] [1, 6]: 215 mPa · s
- PCL 2nd viscosity at 70° C. [mPa · s] [1, 6]: 164 mPa · s
